{
  "source": "patent EP0135172A2",
  "about": "“Method for treatment of osteoporosis” (Takeda Chemical Industries, Ltd., priority 1983, dated 1985)",
  "key": {"[1]": {"test_system": "young oophorectomized rats", "assay": "Estrogenic activity (uterine wet weight) in young oophorectomized rats", "format": "in vivo, Sprague-Dawley rats", "protocol": "Sprague-Dawley rats, 33 days old and 11 days after oophorectomy for elimination of endogenous estrogenic activity, were used in groups of 6 to 7 animals. Compound (I) was suspended in a 1% aqueous solution of hydroxypropylcellulose and administered orally for 3 days, while as a representative example of the conventional estrogen drug, estrone was dissolved in sesame oil and administered subcutaneously for 3 days. On the fourth day, each animal was autopsied and its uterine wet weight was recorded.\nSprague-Dawley rats, 33 days old and 11 days after oophorectomy for elimination of endogenous estrogenic activity, were used in groups of 7 animals. Compound (II) was suspended in a 1% aqueous solution of hydroxypropylcellulose and administered orally."}, "[2]": {"test_system": "rat fetal long bone culture", "assay": "Bone resorption inhibiting activity in rat fetal long bone culture (45Ca release, method of Raisz)", "format": "cell-based, Sprague-Dawley rat", "conditions": "for ^45Ca (%) released: incubated 3 days, mean ± S.D. of six bones; for bone resorption: result in words, summary of Table 3", "protocol": "Determination of bone resorption was performed by the method of Raisz [J. Clin. Invest. 44, 103-116 (1965)]. rhus, a Sprague-Dawley rat on the 19th day of pregnancy was subcutaneously injected with 50 p Ci of 45Ca (isotope of calcium, CaCl2 solution), and was laparotomized on the following day. The embryos were aseptically taken out, the forelimbs (radius and ulna) were cut off from the trunk under a binocular dissecting microscope, and the connective tissue and cartilage were removed as much as possible to prepare bone samples. Each bone sample was preincubated at 37°C for 24 hours in 0.6 mℓ of the medium containing 2 mg/mℓ of bovine serum albumin in BGJb medium (Fitton-Jackson modification) [GIBCO Laboratories, Grand Island, NY 14072 U.S.A.]. Then, the sample was further incubated for 3 days in the same medium as above in which 10 µg/mℓ or 25 µg/mℓ of compound (I) or 10 µg/mℓ of compound (II) had been incorporated. Then, the radioactivity of 45Ca in the medium and that of 45Ca in the bone were measured and the percentage (%) of ^45Ca released from the bone into the medium was calculated by the following formula.\nPercentage (%) of 45 Ca released from bone into medium [formula]\nAs control, the bones of the embryos from the same litter were similarly incubated in the absence of compound (I) or (II) for 3 days."}, "[3]": {"test_system": "ICR mice", "assay": "Acute toxicity in mice", "format": "in vivo", "conditions": "observed 14 days, LD50 could not be calculated", "protocol": "(§1) Five-week-old ICR mice and 5-week-old Sprague-Dawley rats were respectively used in groups of 10 males and 10 females, and suspensions of compound (I) or compound (II) in olive oil were administered orally [2,500, 5,000 and 10,000 mg/kg of each compound] or subcutaneously [1,250, 2,500 and 5,000 mg/kg]. The animals were kept under observation for 14 days."}, "[4]": {"test_system": "rat fetal long bone culture", "assay": "Inhibition of the bone resorption potentiating action of parathyroid hormone in rat fetal long bone culture", "format": "cell-based", "protocol": "The bone samples prepared in the same manner as Test Example 3 were pre-incubated for 24 hours in the same medium as that prepared in Test Example 3 which contains bovine serum album in BGJb medium (Fitton-Jackson modification). Then, in the concomitant presence of PTH (parathyroid hormone, a bone resorption stimulant) and compound (II), the samples were further incubated for 3 days and the percentage of ^45Ca released into the medium was calculated by means of the same formula as that in Test Example 3. As control experiments, the same determination was made for a control group using the medium supplemented with PTH alone."}, "[5]": {"test_system": "Sprague-Dawley rats", "assay": "Acute toxicity in rats", "format": "in vivo", "conditions": "observed 14 days, LD50 could not be calculated", "protocol": "as §1"}, "[6]": {"conditions": "orally 2,500, 5,000 and 10,000 mg/kg in olive oil"}, "[7]": {"conditions": "subcutaneously 1,250, 2,500 and 5,000 mg/kg in olive oil"}},
  "data": [
    {"smiles": "C[C@]12CC[C@@H]3c4ccc(O)cc4CC[C@H]3[C@@H]1CCC2=O", "note": "[Estrone, estrone, reference compound]", "values": [
      {"measurement": "Uterine wet weight (mg ± S.D.)", "setting": "[1]; daily dose 0.0025 mg/kg subcutaneously in sesame oil for 3 days, control group 35.0 ± 1.0", "value": "101.7 ± 4.6", "unit": "mg"},
      {"measurement": "Uterine wet weight (mg ± S.D.)", "setting": "[1]; daily dose 0.005 mg/kg subcutaneously in sesame oil for 3 days, control group 35.0 ± 1.0", "value": "159.8 ± 9.4", "unit": "mg"},
      {"measurement": "Uterine wet weight (mg ± S.D.)", "setting": "[1]; daily dose 0.01 mg/kg subcutaneously in sesame oil for 3 days, control group 35.0 ± 1.0", "value": "223.3 ± 12.5", "unit": "mg"}
    ]},
    {"smiles": "O=c1c(-c2ccccc2)coc2cc(O)ccc12", "note": "[Compound (I), 7-hydroxy-isoflavone]", "values": [
      {"measurement": "Uterine wet weight (mg ± S.D.)", "setting": "[1]; daily dose 6.25 mg/kg orally for 3 days, control group 35.0 ± 1.0", "value": "32.8 ± 1.1", "unit": "mg"},
      {"measurement": "Uterine wet weight (mg ± S.D.)", "setting": "[1]; daily dose 12.5 mg/kg orally for 3 days, control group 35.0 ± 1.0", "value": "33.4 ± 0.9", "unit": "mg"},
      {"measurement": "Uterine wet weight (mg ± S.D.)", "setting": "[1]; daily dose 25 mg/kg orally for 3 days, control group 35.0 ± 1.0", "value": "35.1 ± 0.8", "unit": "mg"},
      {"measurement": "Uterine wet weight (mg ± S.D.)", "setting": "[1]; daily dose 50 mg/kg orally for 3 days, control group 35.0 ± 1.0", "value": "35.3 ± 1.7", "unit": "mg"},
      {"measurement": "Uterine wet weight (mg ± S.D.)", "setting": "[1]; daily dose 100 mg/kg orally for 3 days, control group 35.0 ± 1.0", "value": "35.9 ± 1.0", "unit": "mg"},
      {"measurement": "Uterine wet weight (mg ± S.D.)", "setting": "[1]; daily dose 200 mg/kg orally for 3 days, control group 35.0 ± 1.0", "value": "57.9 ± 1.0", "unit": "mg"},
      {"measurement": "Uterine wet weight (mg ± S.D.)", "setting": "[1]; daily dose 400 mg/kg orally for 3 days, control group 35.0 ± 1.0", "value": "70.4 ± 6.7", "unit": "mg"},
      {"measurement": "uterine weight increasing effect, dose-response curve", "setting": "[1]; orally, daily dose levels of 200 mg/kg and 400 mg/kg", "value": "produced uterine weight increasing effect with a dose-response curve of moderate gradient"},
      {"measurement": "^45Ca (%) released", "setting": "[2]; 10 µg/mℓ, control group 20.6 ± 3.8", "value": "16.5 ± 2.5", "unit": "%"},
      {"measurement": "^45Ca (%) released", "setting": "[2]; 25 µg/mℓ, control group 20.6 ± 3.8", "value": "13.5 ± 2.5", "unit": "%"},
      {"measurement": "bone resorption", "setting": "[2]", "value": "suppressed bone resorption"}
    ]},
    {"smiles": "O=c1c(-c2ccc(O)cc2)coc2cc(O)ccc12", "note": "[Compound (II), 7,4'-dihydroxy-isoflavone]", "values": [
      {"measurement": "deaths and toxic symptoms", "setting": "[3]; [6]", "value": "None of the groups showed deaths nor toxic symptoms"},
      {"measurement": "deaths and toxic symptoms", "setting": "[3]; [7]", "value": "None of the groups showed deaths nor toxic symptoms"},
      {"measurement": "Uterine wet weight (mg ± S.D.)", "setting": "[1]; Test Example 2, daily dose 6.25 mg/kg orally, control group 31.1 ± 1.1", "value": "33.2 ± 0.8", "unit": "mg"},
      {"measurement": "Uterine wet weight (mg ± S.D.)", "setting": "[1]; Test Example 2, daily dose 25 mg/kg orally, control group 31.1 ± 1.1", "value": "32.8 ± 1.0", "unit": "mg"},
      {"measurement": "Uterine wet weight (mg ± S.D.)", "setting": "[1]; Test Example 2, daily dose 100 mg/kg orally, control group 31.1 ± 1.1", "value": "35.3 ± 1.3", "unit": "mg"},
      {"measurement": "Uterine wet weight (mg ± S.D.)", "setting": "[1]; Test Example 2, daily dose 400 mg/kg orally, control group 31.1 ± 1.1", "value": "62.3 ± 6.0", "unit": "mg"},
      {"measurement": "uterine weight increasing activity", "setting": "[1]; orally, dose level of 400 mg/kg", "value": "showed mild uterine weight increasing activity"},
      {"measurement": "^45Ca (%) released", "setting": "[4]; 10 µg/ml in concomitant presence of PTH, incubated 3 days, control group (PTH alone) 30.8±4.3", "value": "23.5±3.4", "unit": "%"},
      {"measurement": "PTH-stimulated bone resorption", "setting": "[4]; result in words, summary of Table 4", "value": "suppressed PTH-stimulated bone resorption"},
      {"measurement": "^45Ca (%) released", "setting": "[2]; 10 µg/mℓ, control group 19.9 ± 5.0", "value": "15.9 ± 1.3", "unit": "%"},
      {"measurement": "bone resorption", "setting": "[2]", "value": "suppressed bone resorption"},
      {"measurement": "deaths and toxic symptoms", "setting": "[5]; [6]", "value": "None of the groups showed deaths nor toxic symptoms"},
      {"measurement": "deaths and toxic symptoms", "setting": "[5]; [7]", "value": "None of the groups showed deaths nor toxic symptoms"}
    ]}
  ]
}
